ChEMBL document CHEMBL1201862, “PubChem BioAssay data set” (2004)
Active and inactive are the calls of the source.

How the values were obtained:
Bcl-2-related protein A1 [1] = target: T1, Bcl-2-related protein A1 (Mus musculus, UniProt Q07440); assay: Bfl-1 binding inhibitors, SAR follow-up, biochemical, fluorescence polarization (AID 1070)
T1 sequence (Q07440 whole entry): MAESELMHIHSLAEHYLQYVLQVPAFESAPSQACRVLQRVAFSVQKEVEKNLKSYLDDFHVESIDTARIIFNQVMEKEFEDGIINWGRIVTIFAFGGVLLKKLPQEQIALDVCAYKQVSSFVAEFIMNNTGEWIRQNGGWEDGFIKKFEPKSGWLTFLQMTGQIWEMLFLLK

Bcl-2-related protein A1 [2] = target: T1, Bcl-2-related protein A1; assay: small-molecule antagonists of Bfl-1/BH3 interaction – biochemical, TR-FRET, mouse Bfl-1, confirmation (AID 621);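 note: TR-FRET binding of GST-Bfl-1 to FITC-labelled Bid peptide via terbium antibody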
[3] = target: Glyceraldehyde-3-phosphate dehydrogenase (Homo sapiens, UniProt P04406)
[4] = target: Protein-tyrosine kinase 2-beta (Homo sapiens, UniProt Q14289);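 note: potency of inhibitors of PYK2 kinase phosphorylation of poly-GT substrate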
Sequence of Protein-tyrosine kinase 2-beta (Q14289 whole entry): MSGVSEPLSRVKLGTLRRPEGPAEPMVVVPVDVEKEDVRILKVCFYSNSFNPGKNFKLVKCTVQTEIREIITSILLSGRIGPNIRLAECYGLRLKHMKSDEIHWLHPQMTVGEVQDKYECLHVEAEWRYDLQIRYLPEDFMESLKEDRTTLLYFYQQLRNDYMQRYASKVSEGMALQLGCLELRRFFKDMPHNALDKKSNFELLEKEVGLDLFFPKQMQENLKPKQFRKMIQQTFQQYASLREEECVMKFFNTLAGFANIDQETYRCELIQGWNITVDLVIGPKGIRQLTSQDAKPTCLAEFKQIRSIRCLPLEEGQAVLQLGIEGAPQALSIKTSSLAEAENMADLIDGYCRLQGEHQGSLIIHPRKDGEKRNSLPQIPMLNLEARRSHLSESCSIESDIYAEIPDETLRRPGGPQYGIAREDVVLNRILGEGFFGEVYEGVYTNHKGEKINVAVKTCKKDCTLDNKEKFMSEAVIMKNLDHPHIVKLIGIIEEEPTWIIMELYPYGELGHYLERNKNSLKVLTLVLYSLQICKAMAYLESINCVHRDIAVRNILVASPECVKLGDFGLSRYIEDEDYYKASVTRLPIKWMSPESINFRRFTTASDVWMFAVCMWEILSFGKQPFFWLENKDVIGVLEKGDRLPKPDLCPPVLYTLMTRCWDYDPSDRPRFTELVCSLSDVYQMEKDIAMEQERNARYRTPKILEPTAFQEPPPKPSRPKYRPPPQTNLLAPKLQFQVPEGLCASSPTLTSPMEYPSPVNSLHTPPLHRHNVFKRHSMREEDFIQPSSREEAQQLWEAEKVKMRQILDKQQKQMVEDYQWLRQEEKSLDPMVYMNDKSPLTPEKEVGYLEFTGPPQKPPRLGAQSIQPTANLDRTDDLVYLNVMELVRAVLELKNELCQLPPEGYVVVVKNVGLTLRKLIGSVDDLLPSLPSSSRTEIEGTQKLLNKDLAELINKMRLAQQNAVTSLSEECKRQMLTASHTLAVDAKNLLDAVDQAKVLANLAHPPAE

[5] = target: Potassium voltage-gated channel subfamily KQT member 2 (Rattus norvegicus, UniProt O88943, W236L); assay: potentiation of rat KCNQ2 current – cell-based, automated electrophysiology, mechanism study for KCNQ2 potentiator project, dose response (AID 2603); format: functional
Sequence of Potassium voltage-gated channel subfamily KQT member 2 (O88943 whole entry W236L): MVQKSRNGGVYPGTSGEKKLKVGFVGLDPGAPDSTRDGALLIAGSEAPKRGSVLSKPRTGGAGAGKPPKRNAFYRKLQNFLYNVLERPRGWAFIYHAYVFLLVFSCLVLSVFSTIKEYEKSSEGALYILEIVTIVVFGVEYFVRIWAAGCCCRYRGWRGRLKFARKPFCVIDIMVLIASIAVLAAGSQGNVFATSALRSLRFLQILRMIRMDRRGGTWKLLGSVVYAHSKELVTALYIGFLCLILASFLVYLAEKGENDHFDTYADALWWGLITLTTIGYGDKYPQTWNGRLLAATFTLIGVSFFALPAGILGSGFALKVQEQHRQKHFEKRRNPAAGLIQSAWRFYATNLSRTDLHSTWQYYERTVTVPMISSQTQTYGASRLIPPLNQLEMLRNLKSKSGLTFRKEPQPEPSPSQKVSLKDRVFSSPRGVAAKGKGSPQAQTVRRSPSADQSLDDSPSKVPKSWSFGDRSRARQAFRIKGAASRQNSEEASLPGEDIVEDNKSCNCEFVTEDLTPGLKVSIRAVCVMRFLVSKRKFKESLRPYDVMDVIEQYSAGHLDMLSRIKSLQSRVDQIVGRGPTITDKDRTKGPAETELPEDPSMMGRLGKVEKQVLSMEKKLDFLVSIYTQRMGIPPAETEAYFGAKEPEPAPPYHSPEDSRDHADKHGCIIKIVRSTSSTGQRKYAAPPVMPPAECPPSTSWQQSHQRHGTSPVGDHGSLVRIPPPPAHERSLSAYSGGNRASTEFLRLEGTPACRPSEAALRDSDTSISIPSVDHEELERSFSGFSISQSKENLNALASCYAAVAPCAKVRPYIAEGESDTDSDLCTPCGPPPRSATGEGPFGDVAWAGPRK

[6] = Luminescence Cell-Based Dose Response to Identify Activators of 5'UTR Stem-Loop Driven Prion Protein mRNA Translation in H4-C Neuroglioblastoma Cells. [Related pubchem assays: 1829 (Project Summary), 1814 (Primary HTS)]; format: functional
H4 = assay: Luminescence Cell-Based Dose Response HTS to Identify Activators of 5'UTR Stem-Loop Driven Prion Protein mRNA Translation in H4 Neuroglioblastoma Cells. [Related pubchem assays: 1829 (Project Summary), 1814 (Primary HTS)]; format: functional; details: Homo sapiens
[7] = Luminescence Cell-Based Dose Response HTS to Identify Activators of Luciferase Translation or Activity in H4 […] Cells. [Related pubchem assays: 1829 (Project Summary), 1814 (Primary HTS)]; format: functional
[8] = Luminescence Cell-Based Dose Response to Identify Activators of Luciferase Translation or Activity in H4-C Neuroglioblastoma Cells. [Related pubchem assays: 1829 (Project Summary), 1814 (Primary HTS)]; format: functional
[9] = Luminescence Cell-Based Dose Confirmation to Identify Activators of 5'UTR Stem-Loop Driven Alpha-Synuclein mRNA Translation in H4 Neuroglioblastoma Cells. [Related pubchem assays: 1829 (Project Summary), 1814 (Primary HTS)]; format: functional
[10] = target: T2, E3 ubiquitin-protein ligase XIAP (Homo sapiens, UniProt P98170); assay: Counter Screen using XIAP-Bir3 for Chemical Antagonists of Bir1/2 domains of IAP-family anti-apoptotic proteins. [Related pubchem assays (depositor defined):AID1018, AID1449, AID1514, AID1638, AID1749, AID1750, AID488957, AID488963]
T2 sequence (P98170 whole entry): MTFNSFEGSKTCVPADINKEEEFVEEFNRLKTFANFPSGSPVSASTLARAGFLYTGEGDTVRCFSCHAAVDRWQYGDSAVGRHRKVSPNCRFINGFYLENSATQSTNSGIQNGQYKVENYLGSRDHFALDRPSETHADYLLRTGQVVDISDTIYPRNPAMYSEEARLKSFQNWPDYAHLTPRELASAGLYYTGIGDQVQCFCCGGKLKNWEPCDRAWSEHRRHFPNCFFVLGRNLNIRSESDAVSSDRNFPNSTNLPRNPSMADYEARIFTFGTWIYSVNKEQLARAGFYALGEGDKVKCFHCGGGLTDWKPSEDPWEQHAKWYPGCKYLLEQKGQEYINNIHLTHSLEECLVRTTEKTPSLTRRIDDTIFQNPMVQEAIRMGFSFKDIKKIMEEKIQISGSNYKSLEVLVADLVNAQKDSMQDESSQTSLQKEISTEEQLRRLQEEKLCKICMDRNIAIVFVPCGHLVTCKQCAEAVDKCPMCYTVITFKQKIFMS

[11] = target: T2, E3 ubiquitin-protein ligase XIAP; assay: small molecules displacing peptide from XIAP – biochemical, IAP family, fluorescence polarization (AID 1018); format: functional
Caspase-8 = Caspase-8 (Homo sapiens, UniProt Q14790); assay: inhibitors of purified CASP8 protease – biochemical, Z-IETD-R110 fluorescence, cherry-picked samples, selectivity assay for caspase-6 inhibitor project, dose response (AID 743294)
Sequence of Caspase-8 (Q14790 217-374 limits assumed): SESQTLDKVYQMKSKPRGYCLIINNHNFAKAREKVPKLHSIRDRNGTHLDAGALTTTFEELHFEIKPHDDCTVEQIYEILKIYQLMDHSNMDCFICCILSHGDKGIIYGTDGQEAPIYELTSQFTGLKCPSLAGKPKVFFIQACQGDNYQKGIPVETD
Sequence of Caspase-8 (Q14790 385-479 limits assumed): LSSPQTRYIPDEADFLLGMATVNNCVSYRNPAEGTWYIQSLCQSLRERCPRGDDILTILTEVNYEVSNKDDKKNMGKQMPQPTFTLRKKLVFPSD

[12] = target: T3, Induced myeloid leukemia cell differentiation protein Mcl-1 (Homo sapiens, UniProt Q07820); assay: blockers of MCL1 binding to BIM peptide – biochemical, fluorescence polarization, BIM-BH3 peptide, 1536-well, dose response (AID 2217)
T3 sequence (Q07820 whole entry, the tested form may be a part): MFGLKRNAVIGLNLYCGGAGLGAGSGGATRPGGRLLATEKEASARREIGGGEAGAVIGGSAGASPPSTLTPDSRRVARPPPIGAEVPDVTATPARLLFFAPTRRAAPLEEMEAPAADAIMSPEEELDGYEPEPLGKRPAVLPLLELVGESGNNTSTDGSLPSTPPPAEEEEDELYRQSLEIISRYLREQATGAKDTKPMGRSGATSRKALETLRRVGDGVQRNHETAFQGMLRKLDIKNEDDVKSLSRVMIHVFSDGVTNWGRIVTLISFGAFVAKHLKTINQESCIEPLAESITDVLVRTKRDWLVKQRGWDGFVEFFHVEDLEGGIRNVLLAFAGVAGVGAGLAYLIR

[13] = target: T4, Carboxy-terminal domain RNA polymerase II polypeptide A small phosphatase 1 (Homo sapiens, UniProt Q9GZU7); assay: CTDSP1 inhibitors, concentration-response, biochemical, absorbance readout, ultra-high-throughput screen actives (AID 540297); format: functional
T4 sequence (Q9GZU7 whole entry): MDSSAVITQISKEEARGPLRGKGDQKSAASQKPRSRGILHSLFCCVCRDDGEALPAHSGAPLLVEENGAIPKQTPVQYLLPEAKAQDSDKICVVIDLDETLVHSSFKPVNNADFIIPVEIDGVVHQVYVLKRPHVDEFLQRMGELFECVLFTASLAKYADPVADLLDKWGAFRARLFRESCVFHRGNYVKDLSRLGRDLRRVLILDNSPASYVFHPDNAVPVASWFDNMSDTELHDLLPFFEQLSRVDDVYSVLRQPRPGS

Caspase-6 = target: T5, Caspase-6 (Homo sapiens, UniProt P55212); assay: inhibition of CASP6 peptide cleavage – biochemical, VEID-R110 fluorescence, cherry-pick, dose response (AID 720632)
T5 sequence (P55212 whole entry): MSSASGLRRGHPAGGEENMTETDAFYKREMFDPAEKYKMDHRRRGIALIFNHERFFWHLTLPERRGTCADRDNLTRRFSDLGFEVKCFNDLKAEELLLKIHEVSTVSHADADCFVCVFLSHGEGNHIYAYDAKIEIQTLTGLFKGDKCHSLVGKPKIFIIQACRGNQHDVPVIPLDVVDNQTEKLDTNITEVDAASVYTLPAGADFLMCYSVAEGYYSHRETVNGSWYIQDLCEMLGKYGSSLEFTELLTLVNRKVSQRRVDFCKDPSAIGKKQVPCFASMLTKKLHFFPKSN

Bcl-2-like protein 1 = Bcl-2-like protein 1 (Homo sapiens, UniProt Q07817); assay: blockers of BCLXL peptide binding – biochemical, fluorescence polarization, 1536-well, selectivity assay for MCL1 inhibitor project, dose response (AID 2218)
Sequence of Bcl-2-like protein 1 (Q07817 whole entry): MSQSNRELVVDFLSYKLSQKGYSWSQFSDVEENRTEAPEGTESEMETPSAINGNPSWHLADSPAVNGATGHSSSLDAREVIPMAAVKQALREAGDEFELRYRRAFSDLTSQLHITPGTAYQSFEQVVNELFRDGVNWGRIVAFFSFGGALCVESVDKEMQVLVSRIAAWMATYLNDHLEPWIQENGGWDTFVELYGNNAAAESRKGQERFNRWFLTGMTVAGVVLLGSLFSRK

Caspase-7 = Caspase-7 (Homo sapiens, UniProt P55210); assay: caspase-7 enzyme inhibition, selectivity check – biochemical, DEVD-R110 fluorescence, cherry-pick, selectivity assay for caspase-6 inhibitor project, dose response (AID 743295); format: functional
Sequence of Caspase-7 (P55210 24-198 limits assumed): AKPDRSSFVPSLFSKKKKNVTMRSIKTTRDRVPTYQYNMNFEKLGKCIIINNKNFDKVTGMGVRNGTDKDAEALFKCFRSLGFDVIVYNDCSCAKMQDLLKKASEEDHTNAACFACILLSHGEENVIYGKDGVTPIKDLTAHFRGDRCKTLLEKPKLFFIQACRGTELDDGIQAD
Sequence of Caspase-7 (P55210 207-303 limits assumed): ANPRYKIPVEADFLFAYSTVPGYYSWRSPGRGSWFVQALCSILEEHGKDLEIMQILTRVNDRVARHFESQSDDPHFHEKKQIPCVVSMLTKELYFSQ

[14] = target: Photoreceptor-specific nuclear receptor (Homo sapiens, UniProt Q9Y5X4); assay: ligands suppressing NR2E3 nuclear receptor activity – biochemical, TR-FRET, dose response (AID 463256); format: functional
Sequence of Photoreceptor-specific nuclear receptor (Q9Y5X4 whole entry): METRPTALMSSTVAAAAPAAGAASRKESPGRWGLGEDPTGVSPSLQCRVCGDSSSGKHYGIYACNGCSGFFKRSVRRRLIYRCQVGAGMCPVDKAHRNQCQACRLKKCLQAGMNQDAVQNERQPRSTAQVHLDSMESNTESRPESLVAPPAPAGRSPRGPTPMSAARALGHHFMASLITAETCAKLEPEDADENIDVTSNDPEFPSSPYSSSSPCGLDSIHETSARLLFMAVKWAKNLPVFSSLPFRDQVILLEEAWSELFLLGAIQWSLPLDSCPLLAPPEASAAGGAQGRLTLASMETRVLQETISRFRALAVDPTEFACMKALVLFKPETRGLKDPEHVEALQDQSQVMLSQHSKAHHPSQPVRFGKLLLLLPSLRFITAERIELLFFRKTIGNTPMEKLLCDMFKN

[15] = target: T6, Small ubiquitin-related modifier 1 (Homo sapiens, UniProt P63165); assay: SUMO1 protein-protein binding blockers, potency – biochemical, FRET, dose response (AID 624383); format: functional; details: read-out: IC50_Mean
T6 sequence (P63165 whole entry): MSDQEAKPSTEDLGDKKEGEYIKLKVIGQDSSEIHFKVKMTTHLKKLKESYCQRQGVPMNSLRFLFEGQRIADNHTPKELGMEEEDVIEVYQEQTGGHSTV

[16] = target: T6, Small ubiquitin-related modifier 1; assay: SUMO1 protein interaction blockers, potency – biochemical, fluorescence polarization, uHTS hits, dose response (AID 624382); format: functional; details: read-out: IC50_Mean
[17] = target: Peroxisome proliferator-activated receptor gamma/Nuclear receptor corepressor 2 (Homo sapiens, UniProt P37231+Q9Y618); assay: Counterscreen for NR2E3 inverse agonists: TR-FRET-based biochemical high throughput dose response assay to identify inverse agonists of the interaction between peroxisome proliferator-activated receptor gamma (PPARg) and nuclear receptor co-repressor 2 (NCOR2).; format: functional
cells [18] = assay: cells
[19] = Trypanosoma cruzi growth suppression in host cells – NIH3T3 host cells, beta-gal luminescence, confirmation (AID 2044); format: functional, cell-based;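 note: intracellular parasites grown in NIH/3T3 mouse fibroblasts as host cells; luminescent beta-galactosidase reporter signal from transgenic T. cruzi replicating inside host cells; inhibitors lower the luminescence signal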
[20] = NIH3T3 cell viability loss – ATP luminescence, mouse fibroblasts, counter-screen, dose response (AID 2010); format: functional, cell-based;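 note: cells exposed to compound for about 90 hours before reading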
cells [21] = format: functional
[22] = Luminescent dose response cell-based high throughput screening assay for inhibitors of the Janus kinase 2 mutant JAK2V617F. [Related pubchem assays: 1446 (Primary screen.), 1521 (Confirmation assay.), 1486 (Counter screen.)]; format: functional
[23] = HPDE-C7 pancreatic duct cell viability loss – fluorescence, HTS (AID 430); format: functional, cell-based; details: Homo sapiens
[24] = viability loss of HPDE-C7K cells – cell-based, fluorescence, HTS, primary screen (AID 431); format: functional; details: Homo sapiens
[25] = target: Sphingosine 1-phosphate receptor 2 (Homo sapiens, UniProt O95136); assay: Dose Response Cell Based Assay for Agonists of the S1P2 Receptor of Purchased Analogues. [Related pubchem assays: 729, 843, 854, 736 ]; format: functional
Sequence of Sphingosine 1-phosphate receptor 2 (O95136 whole entry): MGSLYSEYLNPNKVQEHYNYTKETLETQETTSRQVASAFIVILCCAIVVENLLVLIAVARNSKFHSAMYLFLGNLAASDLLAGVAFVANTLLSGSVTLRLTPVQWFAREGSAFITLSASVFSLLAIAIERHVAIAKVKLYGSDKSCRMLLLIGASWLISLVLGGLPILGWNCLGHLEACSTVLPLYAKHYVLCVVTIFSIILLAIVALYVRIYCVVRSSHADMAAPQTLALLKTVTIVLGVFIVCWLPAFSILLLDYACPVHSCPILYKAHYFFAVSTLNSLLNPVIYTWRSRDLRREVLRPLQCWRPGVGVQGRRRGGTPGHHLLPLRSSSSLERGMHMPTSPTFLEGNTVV

[26] = target: T7, Microphthalmia-associated transcription factor (Homo sapiens, UniProt O75030); assay: reducers of TRPM1 reporter luminescence, concentration series – cell-based, SK-MEL-5, cherry-picked, set 3, MITF inhibitor project, dose response (AID 493073); format: functional;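 note: SK-MEL-5 melanoma cells with luciferase driven by the MITF target TRPM1 promoter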
T7 sequence (O75030 whole entry): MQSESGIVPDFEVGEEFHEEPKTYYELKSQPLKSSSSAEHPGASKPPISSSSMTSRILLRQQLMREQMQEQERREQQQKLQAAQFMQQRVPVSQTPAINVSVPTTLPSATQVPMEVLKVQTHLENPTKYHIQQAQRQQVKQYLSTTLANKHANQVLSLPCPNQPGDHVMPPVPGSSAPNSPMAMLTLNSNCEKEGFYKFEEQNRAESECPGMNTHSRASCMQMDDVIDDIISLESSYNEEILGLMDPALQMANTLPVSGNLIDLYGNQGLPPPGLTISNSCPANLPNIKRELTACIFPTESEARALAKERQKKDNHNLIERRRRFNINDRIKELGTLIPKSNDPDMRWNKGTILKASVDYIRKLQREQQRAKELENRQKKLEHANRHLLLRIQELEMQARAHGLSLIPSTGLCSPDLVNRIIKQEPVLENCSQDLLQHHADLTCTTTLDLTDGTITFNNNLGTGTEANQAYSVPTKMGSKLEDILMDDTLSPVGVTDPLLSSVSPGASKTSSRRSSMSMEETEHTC

[27] = mitochondrial function rescue without frataxin homolog – Friedreich's ataxia, plus single-dose screen, dose response (AID 1465); format: functional;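 note: yeast depleted of Yfh1p frataxin homolog grown on glycerol needing respiration; WST-1 tetrazolium dye reduction as measure of cellular dehydrogenase metabolic activity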
[28] = target: T8, Heat shock factor protein 1 (Mus musculus, UniProt P38532); assay: enhancement of HSF1-driven luciferase signal – cell-based, NIH3T3, luminescence, dose retest, confirmation (AID 435004); format: functional;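 note: stress induced by proteasome inhibitor MG132 added 30 min after compound; luciferase reporter driven by HSF1 response element in NIH3T3 cells; actives raise luminescence as potentiators of the MG132 stress response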
T8 sequence (P38532 whole entry): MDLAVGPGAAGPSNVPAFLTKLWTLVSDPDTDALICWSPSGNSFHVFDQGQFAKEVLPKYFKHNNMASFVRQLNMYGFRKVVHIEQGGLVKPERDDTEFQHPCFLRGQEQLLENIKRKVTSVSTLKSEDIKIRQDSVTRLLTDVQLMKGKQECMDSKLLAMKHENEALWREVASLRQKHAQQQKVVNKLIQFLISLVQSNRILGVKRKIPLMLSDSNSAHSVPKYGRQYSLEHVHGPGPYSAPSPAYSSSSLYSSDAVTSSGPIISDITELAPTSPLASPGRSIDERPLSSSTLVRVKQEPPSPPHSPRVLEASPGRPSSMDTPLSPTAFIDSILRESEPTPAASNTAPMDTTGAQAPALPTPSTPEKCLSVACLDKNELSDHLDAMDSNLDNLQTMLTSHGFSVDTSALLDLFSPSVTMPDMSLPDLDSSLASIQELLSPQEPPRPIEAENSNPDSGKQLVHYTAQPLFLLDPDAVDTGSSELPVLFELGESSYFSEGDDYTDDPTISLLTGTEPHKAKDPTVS

Oxytocin receptor = Oxytocin receptor (Homo sapiens, UniProt P30559); assay: Fluorescence-based cell-based high throughput dose response assay for potentiators of Oxytocin Receptor (OXTR). [Related pubchem assays: 434985 (Confirmation screen (OXTR potentiators in triplicate)), 2481 (Summary (OXTR potentiators)), 2445 (Primary screen (OXTR potentiators in singlicate))]; format: functional
Sequence of Oxytocin receptor (P30559 whole entry): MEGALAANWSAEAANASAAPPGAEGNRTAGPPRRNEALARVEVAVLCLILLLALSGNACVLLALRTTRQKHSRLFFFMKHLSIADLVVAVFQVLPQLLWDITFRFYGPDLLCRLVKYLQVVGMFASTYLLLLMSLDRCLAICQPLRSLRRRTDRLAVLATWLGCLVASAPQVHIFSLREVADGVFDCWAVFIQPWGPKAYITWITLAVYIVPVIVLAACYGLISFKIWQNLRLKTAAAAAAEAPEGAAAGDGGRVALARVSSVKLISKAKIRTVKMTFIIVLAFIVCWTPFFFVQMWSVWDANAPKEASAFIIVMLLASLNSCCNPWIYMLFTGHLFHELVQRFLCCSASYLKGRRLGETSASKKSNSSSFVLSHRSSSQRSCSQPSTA

[29] = Luminescence Cell-Based Dose Retest to Confirm Inhibitors of Cancer Stem Cells. [Related pubchem assays (depositor defined):AID2717, AID2721]; format: functional; details: Homo sapiens
Vero [30] = assay: inhibition of WNV-induced cytopathic effect – cell-based, CPE readout (AID 1621); format: functional; details: Chlorocebus sabaeus
Vero [31] = assay: mammalian cell viability reduction – secondary assay, cytotoxicity control for West Nile virus antiviral project, dose response (AID 1650); format: functional; details: Chlorocebus sabaeus
[32] = target: T3, Induced myeloid leukemia cell differentiation protein Mcl-1; format: functional

CN1CCN(C2=C(Cl)C(=O)N(c3cc(Cl)cc(Cl)c3)C2=O)CC1
IC50 (Bcl-2-related protein A1 [1]): 2.44 µM (active) | IC50 (Bcl-2-related protein A1 [2]): 1.66 µM (active) | IC50 [3]: > 100 µM (not active)

O=C1NCCc2c1[nH]c1c(Cl)ccc(Cl)c21
IC50 [4]: 10.2 µM (not active)

Cc1ccc(NC(=O)C2CC2c2ccccc2)c([N+](=O)[O-])c1 (stereo not drawn)
EC50 [5]: 11.4 µM (active)

CS(=O)(=O)c1nc(S(=O)(=O)c2ccc(Cl)cc2)c(N2CCC3(CC2)OCCO3)s1
EC50 [6]: > 12 µM (not active) | EC50 (H4): > 120 µM (not active) | EC50 [7]: < 0.1 µM (active) | EC50 [8]: > 12 µM (not active) | EC50 [9]: 0.71 µM (active)

COc1ccc(NC(=O)/C(=C/c2cccnc2)NC(=O)c2cccs2)cc1
IC50 [10]: > 100 µM (inactive) | IC50 [11]: > 100 µM (not active)

Cc1cccc(NC(=O)CNC(=O)c2cccc(-n3cccc3)c2)c1C
AC50 (Caspase-8): > 70 µM (inactive) | IC50 [12]: 8.77 µM (active) | IC50 [13]: 3.97 µM (active) | AC50 (Caspase-6): 1.55 µM (active) | IC50 (Bcl-2-like protein 1): > 109 µM (not active) | AC50 (Caspase-7): > 70 µM (inactive)

COc1cccc(-c2csc3nnc(SCC(=O)c4ccc(NC(C)=O)cc4)n23)c1
IC50 [14]: 4.9 µM (active) | IC50 [15]: 10.6 µM (active) | IC50 [16]: > 66.6 µM (inactive) | IC50 [17]: 6.73 µM (active)

CN(C)CCNc1c2c(c(C#N)c3nc4ccccc4n13)CCCC2
EC50 (cells [18]): 0.11 µM (active) | EC50 [19]: < 0.1 µM (active) | EC50 [20]: > 60 µM (not active) | IC50 (cells [21]): 20.9 µM (active)

c1ccc2c(c1)CSc1sccc1C2=C1CCNCC1
IC50 [22]: 1.71 µM (active)

O=c1c2c3c(sc2n2cnnc2n1Cc1ccccc1)CN(Cc1ccccc1)CC3
EC50 [23]: 12.9 µM (active) | EC50 [24]: 11.6 µM (active)

COCCNC(=O)CN(C)CC(=O)c1cc(C)n(Cc2ccccc2)c1C
EC50 [25]: > 30 µM (not active)

CC1=C(C#N)C(=O)N(CCO)C(=O)/C1=N/Nc1ccc2c(c1)COC2=O
AC50 [26]: 9.69 µM (active) | EC50 [27]: > 100 µM (active) | EC50 [28]: 9.38 µM (active)

Sc1nnc(-c2ccncc2)n1/N=C/c1cn(-c2ccccc2)nc1-c1ccccc1
EC50 (Oxytocin receptor): > 29.9 µM (not active)

CN1CCN(CCCN2c3ccccc3Sc3ccc(Cl)cc32)CC1 [PROCHLORPERAZINE]
AC50 [29]: 4.93 µM (active) | IC50 (Vero [30]): 19.1 µM (active) | CC50 (Vero [31]): 29.4 µM (active) | IC50 [32]: 3.77 µM (active)
